Results: patent US8952024B2, “Herbicidal pyrimidone derivatives” (E I du Pont de Nemours and Company, priority 2009, dated 2015)

Key:
Assay type in all cases: in vivo
[1] = test system: Surinam grass (Brachiaria decumbens); test: Test B pre-/postemergence plant response; settings: for Plant response rating, Surinam Grass: Postemergence
In short: (§1)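 Each species received compound formulated in non-phytotoxic solvent with surfactant, either at planting into a loam and sand blend or as a foliar spray once plants reached 2 to 18 cm in peat-based medium. Plants stayed in the greenhouse 13 to 15 days before visual evaluation against controls, scored 0 (no effect) to 100 (complete control).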

[2] = test system: blackgrass (Alopecurus myosuroides); test: Test B pre-/postemergence plant response; settings: for Plant response rating, Blackgrass: Postemergence
In short: as §1

[3] = test system: corn (Zea mays); test: Test B pre-/postemergence plant response; settings: for Plant response rating, Corn: Postemergence
In short: as §1

[4] = test system: giant foxtail (Setaria faberii); test: Test B pre-/postemergence plant response; settings: for Plant response rating, Foxtail, Giant: Postemergence
In short: as §1

[5] = test system: goosegrass (Eleusine indica); test: Test B pre-/postemergence plant response; settings: for Plant response rating, Goosegrass: Postemergence
In short: as §1

[6] = test system: green foxtail (Setaria viridis); test: Test B pre-/postemergence plant response; settings: for Plant response rating, Foxtail, Green: Postemergence
In short: as §1

[7] = test system: johnsongrass (Sorghum halepense); test: Test B pre-/postemergence plant response; settings: for Plant response rating, Johnsongrass: Postemergence
In short: as §1

[8] = test system: lambsquarters (Chenopodium album); test: Test B pre-/postemergence plant response; settings: for Plant response rating, Lambsquarters: Postemergence
In short: as §1

[9] = test system: pigweed (Amaranthus retroflexus); test: Test B pre-/postemergence plant response; settings: for Plant response rating, Pigweed: Postemergence
In short: as §1

[10] = test system: ragweed (common ragweed, Ambrosia elatior); test: Test B pre-/postemergence plant response; settings: for Plant response rating, Ragweed: Postemergence
In short: as §1

[11] = test system: wild oat (Avena fatua); test: Test B pre-/postemergence plant response; settings: for Plant response rating, Oat, Wild: Postemergence
In short: as §1

[12] = test system: rice (Oryza sativa); test: Test B flooded paddy test
In short: (§2)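 Ratings are visual, 0–100 (100 = complete control), taken versus untreated controls 13 to 15 days after treatment in the greenhouse. Compound went straight into paddy water held 3 cm above soil, applied to 2-leaf-stage plants of four species.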

[13] = test system: umbrella sedge (Cyperus difformis); test: Test B flooded paddy test
In short: as §2

[14] = 62 g ai/ha, postemergence, 0 is no effect, 100 is complete control, 13 to 15 days
[15] = 31 g ai/ha, 0 to 100 scale (0 no effect, 100 complete control)
[16] = 125 g ai/ha, scale 0 to 100 (0 no effect, 100 complete control)
[17] = 250 g ai/ha, scale 0 to 100 (0 no effect, 100 complete control), 13 to 15 days
[18] = 250 g ai/ha, flooded paddy test, visual rating on 0 to 100 scale (0 no effect, 100 complete control) after 13 to 15 days
[19] = Flood (flooded paddy test), 62 g ai/ha, scale of 0 to 100 where 0 is no effect and 100 is complete control, 13 to 15 days

## CCCn1c(-c2cccc(Br)c2)ncc(C(=O)C2=C(O)CCCC2=O)c1=O [Compound 141]
[1]; [14]
  Surinam Grass plant response rating (0 to 100 scale): 65
[1]; [15]
  Plant response rating, Surinam Grass: 40
[1]; [16]
  Plant response rating, Surinam Grass: 70
[1]; [17]
  Plant response rating, Surinam Grass: 75
[2]; [14]
  Blackgrass plant response rating (0 to 100 scale): 5
[2]; [15]
  Plant response rating, Blackgrass: 5
[2]; [16]
  Plant response rating, Blackgrass: 10
[2]; [17]
  Plant response rating, Blackgrass: 25
[3]; [14]
  Corn plant response rating (0 to 100 scale): 45
[3]; [15]
  Plant response rating, Corn: 0
[3]; [16]
  Plant response rating, Corn: 45
[3]; [17]
  Plant response rating, Corn: 45
[4]; [14]
  Foxtail, Giant plant response rating (0 to 100 scale): 75
[4]; [15]
  Plant response rating, Foxtail, Giant: 75
[4]; [16]
  Plant response rating, Foxtail, Giant: 80
[4]; [17]
  Plant response rating, Foxtail, Giant: 85
[5]; [14]
  Goosegrass plant response rating (0 to 100 scale): 75
[5]; [15]
  Plant response rating, Goosegrass: 65
[5]; [16]
  Plant response rating, Goosegrass: 75
[5]; [17]
  Plant response rating, Goosegrass: 80
[6]; [14]
  Foxtail, Green plant response rating (0 to 100 scale): 75
[6]; [15]
  Plant response rating, Foxtail, Green: 50
[6]; [16]
  Plant response rating, Foxtail, Green: 90
[6]; [17]
  Plant response rating, Foxtail, Green: 90
[7]; [14]
  Johnsongrass plant response rating (0 to 100 scale): 15
[7]; [15]
  Plant response rating, Johnsongrass: 15
[7]; [16]
  Plant response rating, Johnsongrass: 50
[7]; [17]
  Plant response rating, Johnsongrass: 65
[8]; [14]
  Lambsquarters plant response rating (0 to 100 scale): 80
[8]; [15]
  Plant response rating, Lambsquarters: 80
[8]; [16]
  Plant response rating, Lambsquarters: 98
[8]; [17]
  Plant response rating, Lambsquarters: 100
[9]; [14]
  Pigweed plant response rating (0 to 100 scale): 75
[9]; [15]
  Plant response rating, Pigweed: 60
[9]; [16]
  Plant response rating, Pigweed: 95
[9]; [17]
  Plant response rating, Pigweed: 98
[10]; [14]
  Ragweed plant response rating (0 to 100 scale): 75
[10]; [15]
  Plant response rating, Ragweed: 65
[10]; [16]
  Plant response rating, Ragweed: 85
[10]; [17]
  Plant response rating, Ragweed: 95
[11]; [14]
  Oat, Wild plant response rating (0 to 100 scale): 10
[11]; [15]
  Plant response rating, Oat, Wild: 10
[11]; [16]
  Plant response rating, Oat, Wild: 15
[11]; [17]
  Plant response rating, Oat, Wild: 40
[12]; [18]
  Plant response rating, Flood, Rice: 35
[12]; [19]
  Plant response rating, Rice: 0
[13]; [18]
  Plant response rating, Flood, Sedge, Umbrella: 85
[13]; [19]
  Plant response rating, Sedge, Umbrella: 80
